Reference: article PMC12261233, “Photoactivatable Cyclometalated Ir(III) Compound Penetrates the Blood-Brain Barrier in 3D Spheroidal and Advanced 3D Organoid Models of Inherently Resistant and Aggressive Brain Tumors” (ACS Pharmacology & Translational Science, 2025)

Experiments:
[1] = Photocatalytic oxidation of NADH under blue light; assay type: biochemical; settings: blue light 465 nm, 4.8 mW cm^–2; NADH 100 µM, complex 5 µM
Method: Photostability is essential for PDT agents, as photobleaching can compromise their effectiveness. […] Control experiments in the absence of Ir(III) complexes (Figure S24) or light (Figure S25) corroborated the photocatalytic character of this transformation. […] Additionally, singlet oxygen (^1O2) is the primary cytotoxic species in Type II PDT. , The ability of complexes Ir3–Ir5 and Ir10 to generate singlet oxygen was evaluated by measuring the decrease in […] (DPBF) absorbance at 411 nm under blue light irradiation (Figure S26). […] This confirmed the production of hydroxyl radicals, particularly with complexes Ir3 and Ir10, after 8 min of irradiation (Figure S29).
1. Photocatalytic properties of complexes Ir1−Ir10 in cell-free media.
1.1. Photooxidation of NADH.
The ability of the complexes to photocatalyse the oxidation of NADH was evaluated by recording the absorption spectra of NADH (100 µM) in the presence of complex (5 µM) in PBS (5% DMF) upon blue light irradiation (EXPO-Panels from Luzchem (Canadá)) (465 nm, 5.0 […]
1.2. Quantum yields for the generation of 1O2. […]
Where ΦΔR is the reference quantum yield, mR and mS are the slopes of the reference and sample, respectively, and AR and AS are the absorbance of the reference and the sample at the […]

[2] = system: U87MG-RFP spheroids implanted into cerebral organoids; test: Glioblastoma intergrowth/spreading area in cerebral organoid-U87MG-RFP spheroid fusion system; assay type: cell-based, human; settings: for glioblastoma spreading area, Δ 0h-120h, not irradiated: TMZ 100 μM or Ir4 2 μM for 3 h, no blue light
Method: In this study, U87MG-RFP glioblastoma spheroids were preformed over 72 h, implanted into cerebral organoid tissue, and coembedded in Matrigel. […] Samples designated for irradiation were exposed to blue laser light (405 nm, 60 s, 1 mW) and subsequently cultured in drug-free medium for 120 h. Z-stacking confocal imaging and ImageJ analysis quantified the area of glioblastoma spreading (Figure , panels III and IV).
An implant fusion model was established to monitor the distribution of Ir4 within the tumor, represented by the implanted tumorspheres generated from U87MG, and healthy tissue, represented by the hiPSC-derived cerebral organoid. Before the implantation procedure, spheroids derived from U87MG glioblastoma were cultured for 72 h under 3D forming conditions using ULA plates (96-well U-shaped plate, Corning) in DMEM-F12 supplemented with 2% B27, epidermal growth factor (EGF) at 20 ng mL^–1, fibroblast growth factor 2 (FGF2) at 10 ng mL^–1, and BSA (0.15%). Cerebral organoids were generated through a four-step directed differentiation process from human induced pluripotent stem cells (hiPSCs, Gibco). The hiPSCs were cultured on Geltrex matrix (hESC-Qualified, Reduced Growth Factor Basement Membrane Matrix; Gibco) in StemFlex basal medium (DMEM/F12, Ham, 1:1) fully supplemented with StemFlex supplement (Gibco). The preformation of cerebral organoids, involving the formation of embryoid bodies (EBs), was maintained in U-shape ultralow attachment 96-well plates (ULA, Corning) with 9000 hiPSCs per well in fully supplemented Stemdiff Cerebral organoid medium and 10 μM of the rock inhibitor Y27632. The EBs were cultured for 4 days to establish round-shaped EBs with a diameter of approximately 400 μm. Subsequently, 2 EBs per well were transferred to 24-well ULA plates, and differentiation into neural ectoderm was induced for an additional 2 days using the Stemdiff Cerebral Organoid Kit (StemCell Technologies, CA). Following this, early organoids were embedded in the Matrigel matrix (suitable for organoid culture, Corning) and directed toward further differentiation into neuroectoderm. After the initial differentiation phase, early organoids were monitored for the development of optically clear neuroectoderm (characterized by an optically bright, translucent surface) and the formation of large buds of translucent ectoderm that were not radially organized. Postembedding, the organoids were cultured on 6-well ULA plates under continuous orbital shaker agitation (50 rpm). […] The samples were then transferred to confocal Petri dishes containing drug-free cerebral maturation medium and analyzed using a confocal microscope (Leica CM SP5, Leica, Germany). […]

[3] = system: hiPSC-derived cerebral organoids; test: Cerebral organoid volume growth after treatment (healthy tissue); assay type: cell-based, human; settings: fusion system, untreated control 25%
Method: To assess the treatment’s impact on healthy tissue, cerebral organoid volumes were measured using phase-contrast or bright-field confocal microscopy with manually defined regions of interest.

Compound	Turnover Frequency (TOF) of NADH photo-oxidation [1]	glioblastoma spreading area, Δ 0h-120h, not irradiated ([2]; 120 h drug-free) [fold]	increase in cerebral organoid volume over 120 h [3] [%]	glioblastoma spreading area, Δ 0h-120h, irradiated ([2]; Ir4 2 μM 3 h, 405 nm 60 s 1 mW, 120 h drug-free) [fold]	spreading area relative to TMZ ([2]; nonirradiated, Ir4 concentration 50 times lower than TMZ)
Cc1ccc(-c2cc3[n+]4c(c2)-c2cccc[n+]2[Ir-3]42([Cl])([c]4cc5ccccc5cc4-c4n(Cc5ccc(C(F)(F)F)cc5)c5ccccc5[n+]42)[n+]2ccccc2-3)cc1.F[P-](F)(F)(F)(F)F [Ir3]	about 110 h^–1	–	–	–	–
Cn1nnc2c(C(N)=O)ncn2c1=O [Temozolomide, reference compound]	–	8.7	21	–	–
CCCCn1c2[n+](c3cc(C(=O)OC)ccc31)[Ir-3]13([Cl])([c]4ccccc4-2)[n+]2ccccc2-c2cc(-c4ccc(C)cc4)cc([n+]21)-c1cccc[n+]13.F[P-](F)(F)(F)(F)F [Ir4]	–	2.1	24	0.6	four times smaller
